Experiments:
[1] = molecular target: T1, human cloned 5-HT2B receptors (Homo sapiens, UniProt P41595); test: Human cloned 5-HT2B receptor binding assay ([3H]LSD, CHO-K1 membranes); conditions: displacement of [3H]LSD (1 nM), read-out: 5-HT2B pKi (converted)
T1 construct: expressed in transfected cells; host or cells: CHO-K1 cells
Method: The binding affinity of the compounds for human cloned 5-HT2B receptors was determined using the following assay.
CHO-K1 cells expressing cloned 5-HT2B receptor were maintained in Ultra-CHO medium containing 400 μg/ml of G418, 100 U/ml penicillin, 100 μg/ml streptomycin, 2.5 μg/ml fungizone and 1% foetal bovine serum, in 95/5% O2/CO2 at 37° C. The cells were harvested using 0.25% trypsin and were centrifuged at 800 rpm for 8 minutes. The cells were homogenised in 50 mM HEPES buffer containing 1 mM disodium EDTA and 1 mM PMSF at pH 7.4, using a Dounce homogeniser (20 strokes). The homogenate was centrifuged at 2280 rpm (1000 g) and 4° C. for 10 minutes, after which the supernatant was removed by decanting. The pellet was re-homogenised as above, and the resulting supernatant removed and combined with that already obtained. The supernatant solution was then centrifuged at 18300 rpm (40000 g) for 10 minutes at 4° C. using a Sorvall centrifuge. The supernatant was removed, and the pellet was re-suspended in 50 mM buffer at pH 7.4 using a Ultra-turrax T25 Polytron, before centrifugation again at 40000 g as above. This wash procedure was repeated, after which the membrane preparation was stored at a concentration of 1 mg/ml at −80° C. until use.
The membranes were thawed rapidly and diluted in assay buffer containing Tris-HCl (50 mM, pH 7.4), ascorbic acid (0.1%) and calcium chloride (4 mM). The membranes were homogenised to resuspend them, prior to adding 10 or 15 μg of membranes to assay wells containing [^3H]LSD (1 nM), assay buffer (50 mM Tris, 4 mM calcium chloride and 0.1% ascorbic acid) containing pargyline (10 μM), and the test compounds (1×10^−10 to 1×10^−4M). Non specific binding was determined in the presence of 100 μM 5-HT. After 30 minutes incubation at 37° C., the assay mixture was filtered through a combination of GF-C and GF-B filters, pre-soaked in 1% polyethyleneimine, using a Brandel cell harvester, and were washed three times using 50 mM Tris-HCl. Radioactivity retained on the filters was determined by liquid scintillation counting. For each test compound, the concentration that inhibited binding of [3H]LSD by 50% was determined using curve fitting software (Prism). Kd values (concentration of LSD required to occupy 50% of the receptor binding sites at equilibrium) determined from saturation binding studies were then used to calculate inhibition dissociation constants (Ki) using the following equation: […]
This approach follows that set out in Kenakin, T.P. Pharmacologic analysis of drug-receptor interaction. Raven Press, New York, 2nd Edition.

[2] = molecular target: T2, cloned human 5-HT2A receptor (Homo sapiens, UniProt P28223); test: Human 5-HT2A receptor binding assay ([3H]ketanserin, CHO-K1 membranes); conditions: displacement of [3H]ketanserin (1 nM), read-out: 5-HT2A pKi (converted)
T2 construct: purchased Euroscreen; host or cells: CHO-K1 cells
Method: The binding affinity of ligands for human 5-HT2A and 5-HT2C receptors was determined using the following assay.
Membrane preparations from CHO-K1 cells expressing the cloned human 5-HT2A receptor were obtained (Euroscreen). The membranes were thawed rapidly and diluted in assay buffer containing Tris-HCl (50 mM, pH 7.7). The membranes were resuspended by homogenisation, prior to adding 15 μg of membranes to assay wells containing [3H] ketanserin (1 nM), assay buffer (50 mM Tris at pH 7.4) containing pargyline (10 μM), and test compounds (1×10^−10 to 1×10^−4M). Non specific binding was determined in the presence of 100 μM mianserin. After 15 minutes incubation at 37° C., the assay mixture was filtered through a combination of GF-C and GF-B filters, pre-soaked in 0.05% Brij, using a Brandel cell harvester, and were washed three times using ice cold Tris-HCl buffer (50 mM). Radioactivity retained on the filters was determined by liquid scintillation counting. For each test compound, the concentration that inhibited binding of [^3H]ketanserin by 50% was determined using curve fitting software (Prism). Kd values (concentration of ketanserin required to occupy 50% of the receptor binding sites at equlibrium) determined from saturation binding studies were then used to calculate inhibition dissociation constants (Ki) using the following equation: […]

[3] = molecular target: T3, 5-HT2B receptor in human tissues (Homo sapiens, UniProt P41595); test: Human 5-HT2B receptor tissue based functional assay (human colon longitudinal smooth muscle); type: cell-based; conditions: antagonism of 5-HT effect on electrically stimulated human colon longitudinal muscle; pKB=log(CR-1)-log(antagonist concentration)
T3 construct: from tissue; host or cells: human colon longitudinal smooth muscle strips
Method: An in vitro functional assay, using human colon smooth muscle, was carried out to determine the affinity of the test compounds at the 5-HT2B receptor in human tissues. Sections of human colon were cut open along their longitudinal axis. The sections were pinned out flat and the mucosa carefully removed using sharp dissecting scissors. Once the mucosa was removed, the section was turned over to reveal the three taenia coli (taenia mesencolica, taenia omentalis and taenia libera) and the muscle bands that lie between them. Longitudinal muscle strips (2 mm wide by 20 mm long) were then cut from the tissue between the taenia coli and suspended between stainless steel hooks in organ chambers containing oxygenated (95% O2/5% CO2) Krebs solution at 37° C. The composition of the Krebs solution was as follows: NaCl (118.2 mM), KCl (4.69 mM), MgSO4.7H2O (1.18 mM), KH2PO4 (1.19 mM), glucose (11.1 mM), NaHCO3 (25.0 mM), CaCl2.6H2O (2.5 mM). Tissues were placed under a load equivalent to 10 mN and left to equilibrate for a period of at least 60 minutes. Responses were recorded using isometric transducers coupled to an Apple Macintosh computer via a MacLab interface. After 60 minutes, the longitudinal muscle sections of the human colon were stimulated electrically (sub-maximal voltage and frequency with 60s between successive stimulations) using parallel platinum wire electrodes and a Multistim D330 pulse stimulator. Upon electrical stimulation, the strips of human colon longitudinal smooth muscle responded with a rapid contraction. Once the response to electrical stimulation had stabilised (stimulated responses differed by no more than 10%), the strips were exposed to increasing concentrations of 5-HT (1×10^−9 to 1×10^−5M), in the absence or presence of test compounds (1×10^−7 to 1×10^−5M, incubated for 30 minutes). To determine the affinity of the compounds, the concentration of 5-HT required to produce half-maximal effects (EC50) was calculated in the absence and presence of test compound. The antagonist affinity was calculated by dividing the EC50 for 5-HT in the presence of antagonist by the EC50 for 5-HT in the absence of antagonist to yield a concentration ratio (CR). The results are shown in table 2 below as a pKB value, which is calculated as follows: pKB=log(CR−1)−log(antagonist concentration). This approach follows that set out in Kenakin, T. P. Pharmacologic analysis of drug-receptor interaction. Raven Press, New York, 2nd Edition.

T1 sequence (P41595 whole entry): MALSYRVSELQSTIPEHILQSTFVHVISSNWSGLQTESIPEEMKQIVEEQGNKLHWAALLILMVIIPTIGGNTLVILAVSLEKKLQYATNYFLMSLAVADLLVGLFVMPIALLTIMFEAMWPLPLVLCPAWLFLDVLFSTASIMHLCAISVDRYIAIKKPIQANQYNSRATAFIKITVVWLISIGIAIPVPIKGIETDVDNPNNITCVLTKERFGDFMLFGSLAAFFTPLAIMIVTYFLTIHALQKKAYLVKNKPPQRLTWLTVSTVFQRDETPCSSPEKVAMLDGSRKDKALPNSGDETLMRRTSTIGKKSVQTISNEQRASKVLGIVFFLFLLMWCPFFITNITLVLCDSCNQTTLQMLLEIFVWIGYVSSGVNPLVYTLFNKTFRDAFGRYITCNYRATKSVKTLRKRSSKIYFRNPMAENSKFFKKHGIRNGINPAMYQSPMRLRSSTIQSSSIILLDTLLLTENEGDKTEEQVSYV
T3 sequence (P41595 whole entry): as above
T2 sequence (P28223 whole entry): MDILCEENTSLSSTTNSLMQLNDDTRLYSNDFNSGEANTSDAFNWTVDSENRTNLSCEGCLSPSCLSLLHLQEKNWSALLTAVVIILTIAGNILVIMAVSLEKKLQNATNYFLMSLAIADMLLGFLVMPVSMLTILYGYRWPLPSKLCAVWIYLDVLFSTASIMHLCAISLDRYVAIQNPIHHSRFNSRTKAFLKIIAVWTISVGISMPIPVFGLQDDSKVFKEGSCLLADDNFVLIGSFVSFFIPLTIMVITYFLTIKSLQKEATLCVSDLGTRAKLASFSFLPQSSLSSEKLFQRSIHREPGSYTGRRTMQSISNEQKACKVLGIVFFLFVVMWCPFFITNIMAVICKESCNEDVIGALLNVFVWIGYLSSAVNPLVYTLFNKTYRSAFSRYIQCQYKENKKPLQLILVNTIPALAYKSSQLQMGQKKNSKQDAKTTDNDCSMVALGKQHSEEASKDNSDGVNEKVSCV

Compound | Ki [1] [nM] | Ki [2] [nM] | Kb [3] [nM]
Nc1nc(-c2cccc3ccccc23)co1 [Compound 1, 2-amino-4-(naphth-1-yl)oxazole] | < 100 | > 10000 | < 100
Cc1ccc2ccccc2c1-c1coc(N)n1 [Compound 6, 2-amino-4-(2′-methylnaphth-1-yl)oxazole] | < 10 | > 1000 | < 100
CC(C)c1nc(N)oc1-c1cccc2ccccc12 [Compound 7, 2-amino-4-isopropyl-5-(naphth-1-yl)oxazole] | < 10 | > 100 | < 10
COc1ccc2ccccc2c1-c1coc(N)n1 [Compound 17, 4-(2-methoxy-naphthalen-1-yl)-oxazol-2-ylamine] | < 10 | > 1000 | < 10
CC(C)c1nc(N)oc1-c1ccc(F)c2ccccc12 [Compound 31, 2-amino-5-(4′-fluoronaphth-1-yl)-4-isopropyloxazole] | < 10 | > 1000 | < 100
